Literature values, collected in US6955827B2, “Method of controlling release of antimicrobial agents in chewing gum” (Wm. Wrigley Jr. Company, priority 1997, dated 2005).

details: at 25° C.

water solubility	Structure (SMILES)
50%	N=C(NCCCCCCNC(=N)NC(=N)Nc1ccc(Cl)cc1)NC(=N)Nc1ccc(Cl)cc1.O=C(O)[C@H](O)[C@@H](O)[C@H](O)[C@H](O)CO.O=C(O)[C@H](O)[C@@H](O)[C@H](O)[C@H](O)CO [Chlorhexidine digluconate, chlorhexidine digluconate]
about 0.05%	CCCCCCc1ccc(O)cc1O [Hexylresorcinol, hexylresorcinol]
about 0.05%	Oc1cc(Cl)ccc1Oc1ccc(Cl)cc1Cl [Triclosan, 2,4,4-trichloro-2-hydroxydiphenyl ether]

Structure (SMILES)	water solubility
CCCCCCCCCCCCCCCC[n+]1ccccc1 [Cetylpyridinium chloride, cetylpyridinium chloride]	33%
